Laboratory results reported in US20250177383A1, “DI-CYCLOPROPYL BASED IL-17A MODULATORS AND USES THEREOF” (DICE ALPHA, INC., priority 2022, published 2025).
Where two headings read alike, the source gives them in different places.

Columns and labels:
[1] = target: T1, IL-17A/F (Homo sapiens, UniProt Q16552+Q96PD4); assay: IL-17A/F HEK-Blue Cell Assay; assay type: cell-based; conditions: HEK-Blue IL-17 reporter cells, IL-17A/F stimulation, 20 hours, SEAP readout; for IC50: read-out: IL17AF HEK Blue pIC50 (converted)
T1 sequence (Q16552 24-155): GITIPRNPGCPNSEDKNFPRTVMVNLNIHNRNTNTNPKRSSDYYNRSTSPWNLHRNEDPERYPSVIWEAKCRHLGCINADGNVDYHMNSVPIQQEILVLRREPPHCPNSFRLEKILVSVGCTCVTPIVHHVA
T1 sequence (Q96PD4 31-163): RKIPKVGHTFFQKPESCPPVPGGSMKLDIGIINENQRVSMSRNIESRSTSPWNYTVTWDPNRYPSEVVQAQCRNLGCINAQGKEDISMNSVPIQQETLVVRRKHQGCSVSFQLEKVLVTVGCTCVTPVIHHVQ
Description: (§1) The HEK-Blue IL-17 reporter cell line (Fisher #NC1408637) was used for cell-based IL-17A/F inhibition assays. Cells were grown and prepared for assays according to the manufacturer's instructions. This cell line consists of HEK 293 cells that were designed to expressed IL-17RA, IL-17R^C, and the ActI adapter molecule, the combination of which, when stimulated by IL-17A/A activates a NFκB promoter and drives expression of a recombinant Secreted Alkaline Phosphatase (SEAP) geneprotein. Media from the cells is then added to a development reagent (Quanti-Blue Substrate, Fisher #NC9711613), and read at A630.
(§2) Compounds were titrated in DMSO and added to the cells immediately before adding IL-17A/A (Custom from R&D systems, untagged IL-17A/F+BSA as a carrier protein). The cells, compound, and IL-17A/A were then incubated for 20 hours before media was removed for SEAP analysis. The resulting inhibition curve was then analyzed using a Dotmatics screening protocol, and IC50 values were determined using a 4-parameter nonlinear fit. DMSO was added to a universal final concentration of 0.1% to optimize background.

[2] = target: T2, IL-17A/A (Homo sapiens, UniProt Q16552); assay: IL-17A/A HEK-Blue Cell Assay; assay type: cell-based; conditions: IL-17A/A stimulation, 20 hours, SEAP readout
T2 sequence (Q16552 24-155): T1 sequence (Q16552 24-155)
Description: as §1, with “IL-17A/A” for “IL-17A/F”, “IL-17R^A,” for “IL-17RA,”, “protein.” for “geneprotein.”
as §2, with “in DMSO, with a top final compound concentration of 10 uM” for “in DMSO”, “IL-17A/A (Genscript #Z03228).” for “IL-17A/A (Custom from R&D systems, untagged IL-17A/F+BSA as a carrier protein).”, “background. IL-17A/A inhibition data is provided in Table 1 for selected compounds.” for “background.”

[3] = HEK-Blue IL-17 reporter cells, read-out: IL17 AA HEK-5 pIC50 (converted)

| IC50 [1] [nM] | IC50 [2, 3] [nM] | IL17AF HEK Blue pIC50 [1] | SMILES | IC50 ([2]; IL17 AA HEK-5 pIC50, HEK-Blue IL-17 reporter cells) [nM] | IL17 AA HEK-5 pIC50 ([2]; HEK-Blue IL-17 reporter cells) |
| --- | --- | --- | --- | --- | --- |
| 10 to 100 | < 10 | – | CCn1nccc1C(=O)N[C@H](C(=O)Nc1ccc([C@H](C)[C@@H](NC(=O)[C@H](C)OC)C(=O)N2CCN(C)C(CF)C2)cc1F)C(C1CC1)C1CC1 (single isomer, unassigned) [Compound 299] | – | – |
| 100 to 10000 | 10 to 100 | – | CO[C@@H](C)C(=O)N[C@@H](C(=O)N1CCNC(CF)C1)[C@@H](C)c1ccc(NC(=O)[C@@H](NC(=O)C2(F)CC2)C(C2CC2)C2CC2)c(F)c1 (single isomer, unassigned) [Compound 301] | – | – |
| 100 to 10000 | 10 to 100 | – | CCn1nccc1C(=O)N[C@H](C(=O)Nc1ccc([C@H](C)[C@@H](NC(=O)[C@@H](C)F)C(=O)N2CCNC(CF)C2)cc1F)C(C1CC1)C1CC1 (single isomer, unassigned) [Compound 303] | – | – |
| 100 to 10000 | < 10 | – | CCC(=O)N[C@@H](C(=O)N1CCNC(CF)C1)[C@@H](C)c1ccc(NC(=O)[C@@H](NC(=O)c2nonc2CC)C(C2CC2)C2CC2)c(F)c1 (single isomer, unassigned) [Compound 304] | – | – |
| < 10 | < 10 | – | CCn1nccc1C(=O)N[C@H](C(=O)Nc1ccc([C@H](C)[C@@H](NC(=O)C(C)C2CC2)C(=O)N2CCN(C)[C@H](C)C2)cc1F)C(C1CC1)C1CC1 (single isomer, unassigned) [Compound 309] | – | – |
| 10 to 100 | – | – | CCn1nccc1C(=O)N[C@H](C(=O)Nc1ccc([C@H](C)[C@@H](NC(=O)C(C)C2CC2)C(=O)N2CCN(C)[C@H](C)C2)cc1F)C(C1CC1)C1CC1 (single isomer, unassigned) [Compound 310] | – | A (pIC50 of greater than or equal 8 as A) |
| 100 to 10000 | 10 to 100 | – | CCn1nccc1C(=O)N[C@H](C(=O)Nc1ccc([C@H](C)[C@@H](NC(=O)C(C)OCCOC)C(=O)N2CCN(C)[C@H](C)C2)cc1F)C(C1CC1)C1CC1 (single isomer, unassigned) [Compound 311] | – | – |
| 100 to 10000 | 100 to 10000 | – | CCn1nccc1C(=O)N[C@H](C(=O)Nc1ccc([C@H](C)[C@@H](NC(=O)C(C)OCCOC)C(=O)N2CCN(C)CC2)cc1F)C(C1CC1)C1CC1 (single isomer, unassigned) [Compound 314] | – | – |
| – | 10 to 100 | C (7>C≥5) | CCn1nccc1C(=O)N[C@H](C(=O)Nc1ccc([C@H](C)[C@@H](NC(=O)C(C)OCCOC)C(=O)N2CCN(C)CC2)cc1F)C(C1CC1)C1CC1 (single isomer, unassigned) [Compound 315] | – | – |
| 10 to 100 | < 10 | – | CCn1nccc1C(=O)N[C@H](C(=O)Nc1ccc([C@H](C)[C@@H](NC(=O)C(C)C2CC2)C(=O)N2CCN(C)CC2)cc1F)C(C1CC1)C1CC1 (single isomer, unassigned) [Compound 317] | – | – |
| 100 to 10000 | 10 to 100 | – | CCOC(C)C(=O)N[C@@H](C(=O)N1CCN(C)[C@H](C)C1)[C@@H](C)c1ccc(NC(=O)[C@@H](NC(=O)c2ccnn2CC)C(C2CC2)C2CC2)c(F)c1 (single isomer, unassigned) [Compound 320] | – | – |
| 100 to 10000 | 10 to 100 | – | CCOC(C)C(=O)N[C@@H](C(=O)N1CCN(C)[C@H](C)C1)[C@@H](C)c1ccc(NC(=O)[C@@H](NC(=O)C2(F)CC2)C(C2CC2)C2CC2)c(F)c1 (single isomer, unassigned) [Compound 321] | – | – |
| – | < 10 | C (7>C≥5) | CCOC(C)C(=O)N[C@@H](C(=O)N1CCN(C)[C@H](C)C1)[C@@H](C)c1ccc(NC(=O)[C@@H](NC(=O)C2(F)CC2)C(C2CC2)C2CC2)c(F)c1 (single isomer, unassigned) [Compound 322] | – | – |
| 10 to 100 | < 10 | – | CCOC(C)C(=O)N[C@@H](C(=O)N1CCN(C)[C@H](C)C1)[C@@H](C)c1ccc(NC(=O)[C@@H](NC(=O)c2ccnn2CC)C(C2CC2)C2CC2)c(F)c1 (single isomer, unassigned) [Compound 323] | – | – |
| 10 to 100 | < 10 | – | CCn1nccc1C(=O)N[C@H](C(=O)Nc1ccc([C@H](C)[C@@H](NC(=O)C(C)CC(F)(F)F)C(=O)N2CCN(C)[C@H](C)C2)cc1F)C(C1CC1)C1CC1 (single isomer, unassigned) [Compound 324] | – | – |
| 100 to 10000 | 10 to 100 | – | CCn1nccc1C(=O)N[C@H](C(=O)Nc1ccc([C@H](C)[C@@H](NC(=O)C(C)C(F)(F)F)C(=O)N2CCN(C)[C@H](C)C2)cc1F)C(C1CC1)C1CC1 (single isomer, unassigned) [Compound 326] | – | – |
| 10 to 100 | < 10 | – | CCOC(C)C(=O)N[C@@H](C(=O)N1CCN(C)CC1)[C@@H](C)c1ccc(NC(=O)[C@@H](NC(=O)c2ccnn2CC)C(C2CC2)C2CC2)c(F)c1 (single isomer, unassigned) [Compound 328] | – | – |
| 100 to 10000 | 10 to 100 | – | CCOC(C)C(=O)N[C@@H](C(=O)N1CCN(C)CC1)[C@@H](C)c1ccc(NC(=O)[C@@H](NC(=O)c2ccnn2CC)C(C2CC2)C2CC2)c(F)c1 (single isomer, unassigned) [Compound 329] | – | – |
| 100 to 10000 | 10 to 100 | – | CCn1nccc1C(=O)N[C@H](C(=O)Nc1ccc([C@H](C)[C@@H](NC(=O)C(C)CC(F)(F)F)C(=O)N2CCN(C)CC2)cc1F)C(C1CC1)C1CC1 (single isomer, unassigned) [Compound 331] | – | – |
| 10 to 100 | – | – | CCn1nccc1C(=O)N[C@H](C(=O)Nc1ccc([C@H](C)[C@@H](NC(=O)C(C)CC(F)(F)F)C(=O)N2CCN(C)CC2)cc1F)C(C1CC1)C1CC1 (single isomer, unassigned) [Compound 332] | – | B (8>B≥7 as B) |
| 100 to 10000 | 10 to 100 | – | CCn1nccc1C(=O)N[C@H](C(=O)Nc1ccc([C@H](C)[C@@H](NC(=O)C(C)C(F)(F)F)C(=O)N2CCN(C)CC2)cc1F)C(C1CC1)C1CC1 (single isomer, unassigned) [Compound 333] | – | – |
| 100 to 10000 | 10 to 100 | – | CCC(OC)C(=O)N[C@@H](C(=O)N1CCN(C)[C@H](C)C1)[C@@H](C)c1ccc(NC(=O)[C@@H](NC(=O)c2ccnn2CC)C(C2CC2)C2CC2)c(F)c1 (single isomer, unassigned) [Compound 335] | – | – |
| – | 10 to 100 | – | CO[C@@H](C)C(=O)N[C@@H](C(=O)N1C[C@H]2C[C@@H]1CN2C)[C@@H](C)c1ccc(NC(=O)[C@@H](NC(=O)c2ccnn2C(C)C)C(C2CC2)C2CC2)c(F)c1 [Compound 263] | – | – |
| – | < 10 | – | CCC(=O)N[C@@H](C(=O)N1C[C@H]2CC[C@@H](C1)N2C)[C@@H](C)c1ccc(NC(=O)[C@@H](NC(=O)c2ccnn2C(C)C)C(C2CC2)C2CC2)c(F)c1 [Compound 264] | – | – |
| – | < 10 | – | CCC(=O)N[C@@H](C(=O)N1CC[C@H](N(C)C)C1)[C@@H](C)c1ccc(NC(=O)[C@@H](NC(=O)c2ccnn2C(C)C)C(C2CC2)C2CC2)c(F)c1 [Compound 265] | – | – |
| – | 10 to 100 | – | CCC(=O)N[C@@H](C(=O)N1C[C@H]2C[C@@H]1CN2C)[C@@H](C)c1ccc(NC(=O)[C@@H](NC(=O)c2ccnn2C(C)C)C(C2CC2)C2CC2)c(F)c1 [Compound 266] | – | – |
| – | 10 to 100 | – | CCC(=O)N[C@@H](C(=O)N1CCC[C@@H](N)C1)[C@@H](C)c1ccc(NC(=O)[C@@H](NC(=O)c2ccnn2CC)C(C2CC2)C2CC2)c(F)c1 [Compound 268] | – | – |
| – | 10 to 100 | – | CO[C@@H](C)C(=O)N[C@@H](C(=O)N1CCN(C)CC1)[C@@H](C)c1ccc(NC(=O)[C@@H](NC(=O)C2(F)CC2)C(C2CC2)C2CC2)c(F)c1 [Compound 272] | – | – |
| – | 10 to 100 | – | CCOC(=O)N1CC[C@H]1C(=O)N[C@@H](C(=O)N1CCN(C)CC1)[C@@H](C)c1ccc(NC(=O)[C@@H](NC(=O)C2(F)CC2)C(C2CC2)C2CC2)c(F)c1 [Compound 274] | – | – |

| SMILES | IC50 [1] [nM] | IC50 [2, 3] [nM] | IL17AF HEK Blue pIC50 [1] | IC50 ([2]; IL17 AA HEK-5 pIC50, HEK-Blue IL-17 reporter cells) [nM] | IL17 AA HEK-5 pIC50 ([2]; HEK-Blue IL-17 reporter cells) |
| --- | --- | --- | --- | --- | --- |
| CCc1nonc1C(=O)N[C@H](C(=O)Nc1ccc([C@H](C)[C@@H](NC(=O)CF)C(=O)N2CCNC(CF)C2)cc1F)C(C1CC1)C1CC1 (single isomer, unassigned) [Compound 302] | 100 to 10000 | – | – | 10 to 100 | – |
